This note sets out measurements from PubChem BioAssay (NCI).

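Protocol summary: plate cells (96-well), add compound at 5 concentrations, incubate 48 h, interpolate endpoints linearly. Definition used: TGI = concentration required for complete inhibition of growth.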

Test systems include HOP-92 NSCLC; SF-268 CNS; NCI-H460 lung; UACC-62 melanoma; TK-10 renal; HCC-2998 colon; SK-MEL-28 melanoma; SF-295 CNS; UO-31 renal; OVCAR-5 ovarian; HCT-116 colon.
Common to all, as to experiment: growth of human tumour cells (NCI), 48 h

As for `Cc1c(C)c2c(c(N)c1C#N)C(=O)N(Cc1ccc(S(N)(=O)=O)cc1)C2=O`, the TGI with HOP-92 NSCLC was above 44.6 µM; in the experiment on SF-268 CNS, above 86.3 µM; with NCI-H460 lung, above 100 µM; with UACC-62 melanoma, above 100 µM; in the experiment with TK-10 renal, 99.7 µM; in the experiment on HCC-2998 colon it was above 100 µM. Also, the TGI was above 100 µM with SK-MEL-28 melanoma; above 56.6 µM with SF-295 CNS; above 100 µM in the experiment with UO-31 renal; above 87.9 µM with OVCAR-5 ovarian; above 92.5 µM in the experiment with HCT-116 colon.
As for `CCOC(=O)c1c(NC(=O)c2ccccc2)c(C#N)c2n1CCCCC2`, the TGI in the experiment on HOP-92 NSCLC, with SF-268 CNS, with NCI-H460 lung, with UACC-62 melanoma, in the experiment with TK-10 renal and in the experiment with HCC-2998 colon was above 100 µM in each case. The TGI in the experiment with SK-MEL-28 melanoma, with SF-295 CNS, in the experiment on UO-31 renal, with OVCAR-5 ovarian and in the experiment on HCT-116 colon was above 100 µM each time.
On to `CN(NC1=NCCO1)c1ccc2ccccc2c1`, for which the TGI is 57.3 µM with HOP-92 NSCLC; above 100 µM with SF-268 CNS; above 100 µM in the experiment on NCI-H460 lung; above 100 µM in the experiment on UACC-62 melanoma; above 100 µM in the experiment with TK-10 renal; 99.4 µM with HCC-2998 colon. Also, the TGI in the experiment with SK-MEL-28 melanoma, with SF-295 CNS, in the experiment on UO-31 renal, with OVCAR-5 ovarian and in the experiment with HCT-116 colon was above 100 µM throughout.
